As usually defined, the GI50 is the concentration that inhibits growth by half. For orientation: Kd means the concentration at which binding is half-saturated.

The source of these data is US9056891B2, “Synthetic peptide inhibitors of Wnt pathway” (The United States of America, as represented by the …, priority 2010, dated 2015).

For test [1], the system named is HT-29 cells. Type of test: cell-based. The settings on record: 48 h. The procedure:
(§1) HeLa, U3A, RKO, HCT-116, and HT-29 cells were exposed to the CT-HC-1, CT-HC-3, CT-HC-5, and CT-HC-8 inhibitors of Example 1 for 48 hours in medium containing 1% bovine fetal serum, and the resulting cell number was evaluated using a MTT assay. Each of these cell lines is relevant to the evaluation of Wnt signaling. Cervical carcinoma HeLa cells overexpress β-catenin (see, e.g., Lee et al., Int. J. Cancer, 124(2): 287-297 (2009); and Lee et al., Gynecol. Oncol., 109(2): 270-274 (2008)). β-catenin is activated in colon carcinoma RKO due to mutation in CDX2 (see, e.g., Dang et al., Oncogene, 20(35): 4884-4890 (2001)). Colon adenocarcinoma HCT116 has elevated mutated β-catenin; however, it was found in the past to be resistant to down regulation of β-catenin (see, e.g., Chan et al., Proc. Natl. Acad. Sci. USA, 99(12): 8265-8270 (2002); and Handeli et al., Mol. Cancer Ther., 7(3): 521-529 (2008)). Colon carcinoma HT-29 has truncated adenomatous polyposis coli (APC) protein, which is a common cause of canonical Wnt pathway activation in colon malignancies. Fibrosarcoma U3A cells are STAT1-negative and have uncharacterized status of Wnt pathway.
(§2) The ability of CT-HC-1 to inhibit growth and to kill cancer cells at different concentrations was further investigated in HeLa, U3A, RKO, HCT-116, and HT-29 cells. The cells were stained with Promega Non-Radioactive Cell Proliferation Assay Kit (MTT) according to the manufacture's protocol. The absorbance of the wells was determined at 544 nm by a FLUOstar/POLARstar Galaxy (BMG Lab Technologies GmbH) Microplate Reader. The assays were performed on control (C) and test (T) cells. Untreated cells were used as a control. Cellular responses were calculated from the data using the following formula: 100×[(T−T0)/(C−T0)] for T>T0 and 100×[(T−T0)/T0] for T<T0. T0 corresponds to cell density at the time of drug addition.

In test [2] the test system is HeLa cells. Type of test: cell-based. The settings on record: 48 h. How it is done:
as §1, §2

The test system of test [3] is RKO cells. Type of test: cell-based. The settings on record: 48 h. The procedure:
as §1, §2

Test [4] has as its system U3A cells. Type of test: cell-based. Particulars: 48 h. The procedure: as §1, §2
Test [5] has as its system HCT-116 cells. Type of test: cell-based, human. The settings on record: 48 h. How it is done:
as §1, §2

The subject of test [6] is SW480 cells. Briefly: Toxicity (growth inhibition) for SW-480 cells. Type of test: cell-based, human. The arrangement: unit not given here. The procedure: (§3) Further optimization and testing of inhibitors was performed using this cell line. Table 5 presents toxicity data for select inhibitors for 4T1 cells and human colon cancer cell line SW-480, wherein GI50 is the concentration providing 50% growth inhibition and TGI is the total growth inhibition.

Test [7] concerns 4T1 cells. Briefly: Toxicity (growth inhibition) for 4T1 cells. Type of test: cell-based, mouse. How it is done: To identify a mouse model for preclinical development of compounds, mouse cell lines were tested for (1) growth inhibition by the compounds and (2) the levels of constitutive Wnt signaling TCF-reporter activity using transfection of cell with TCF/LEF-responsive firefly luciferase construct. The data further confirmed that sensitivity to compounds correlated well with the levels of canonical Wnt signaling.
Based on the data, mouse breast cancer cell line 4T1 was selected for in vivo testing.
as §3

The subject of test [8] is RKO, HT-29, HCT-116, SW-480, and SW-620 cells. Nature of the test: Cell viability of colon cancer cells (FIGS. 2A-C). Type of test: cell-based. The settings on record: increasing concentrations, HT-29, HCT-116, SW-480, SW-620. How it is done: The concentration (μM) of the peptide inhibitor is indicated on the x-axis and the percent viability is indicated on the y-axis.
A similar experiment was performed using RKO, HT-29, HCT-116, SW-480, and SW-620 cells. Colorectal adenocarcinoma SW-480 and SW-620 cells have truncated APC protein, which—as discussed above—is a common cause of canonical Wnt pathway activation in colon malignancies.

Test [9] relates to 4T1 mouse breast cancer cells. Briefly: Colony formation by 4T1 cells. Type of test: cell-based. Particulars: 5 μM and 10 μM. An excerpt:
The activity of compounds in inhibiting colony formation by 4T1 cells was also investigated, which test provides a prediction for compound's potency in vivo.

The target of test [10] is T1, GFP-tagged beta-catenin (Homo sapiens, UniProt P35222).
T1 construct: made in house; host or cells: HEK293 cells (unpurified lysate)
T1 sequence (P35222 1-781): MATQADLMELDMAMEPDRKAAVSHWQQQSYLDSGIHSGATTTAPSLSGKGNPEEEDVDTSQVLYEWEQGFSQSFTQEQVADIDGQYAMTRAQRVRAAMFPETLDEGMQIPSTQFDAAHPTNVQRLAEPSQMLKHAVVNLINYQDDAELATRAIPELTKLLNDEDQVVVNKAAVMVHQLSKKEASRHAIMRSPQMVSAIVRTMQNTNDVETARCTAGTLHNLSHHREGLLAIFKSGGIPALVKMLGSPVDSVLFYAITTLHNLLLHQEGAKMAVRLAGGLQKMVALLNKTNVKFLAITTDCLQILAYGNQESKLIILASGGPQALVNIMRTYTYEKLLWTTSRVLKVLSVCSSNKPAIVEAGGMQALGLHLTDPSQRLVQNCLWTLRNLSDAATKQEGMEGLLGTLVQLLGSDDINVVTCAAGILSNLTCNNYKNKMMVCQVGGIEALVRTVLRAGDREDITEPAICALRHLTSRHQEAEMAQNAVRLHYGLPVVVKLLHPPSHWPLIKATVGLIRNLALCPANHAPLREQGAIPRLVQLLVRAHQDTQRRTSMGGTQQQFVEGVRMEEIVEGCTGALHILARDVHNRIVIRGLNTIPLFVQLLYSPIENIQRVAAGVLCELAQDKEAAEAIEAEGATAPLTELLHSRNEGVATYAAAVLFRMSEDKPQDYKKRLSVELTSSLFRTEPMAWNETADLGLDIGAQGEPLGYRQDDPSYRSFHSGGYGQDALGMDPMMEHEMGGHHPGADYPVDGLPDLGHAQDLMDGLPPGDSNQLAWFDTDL
Nature of the test: Microscale thermophoresis of GFP-tagged beta-catenin. Type of test: binding. The settings on record: HEK293 lysate, membrane-mimicking bicelles, Hill fit. The procedure:
Briefly, beta-catenin was overexpressed as a GFP-fusion in HEK293 cells. The cells were lysed with ultrasound, and the resulting lysate was mixed with increasing concentrations of CT-HC-5 in the presence of membrane-mimicking bicelles. Thermophoretic mobility was measured in standard capillaries on Monolith NT.115 (NanoTemper Technologies).

Where a SMILES comes first, the peptide text is derived from it. [ ]: non-standard residue; d: D form. The star is where a group is joined. Palmitoyl = CCCCCCCCCCCCCCCC(=O)*

Take `CCCCCCCCCCCCCCCC(=O)N[C@@H](C(=O)N[C@H](CCCNC(=N)N)C(=O)N[C@H](Cc1ccccc1)C(=O)N[C@H](CC(C)C)C(=O)N[C@H](CO)C(=O)N[C@H](CO)C(=O)N[C@@H](C(=O)N[C@H](CC(C)C)C(=O)N[C@H](CCC(=O)O)C(=O)N[C@@H](C(=O)N[C@H](CO)C(=O)N[C@H](CC(C)C)C(=O)N[C@H](CCCNC(=N)N)C(=O)N[C@H](CCCCN)C(=O)N[C@H](CCCCN)C(N)=O)C(C)C)[C@H](C)O)[C@H](C)O` [CT-HC-5, Pal-TRFLSSTLEVSLRKK-NH2] (Palmitoyl-[dT][dR][dF][dL][dS][dS][dT][dL][dE][dV][dS][dL][dR][dK][dK]-NH2): the GI50 in [1] is 2000 ± 100 nM; in test [2] it was 1200 ± 90 nM; in test [3], 1150 ± 50 nM; in test [4], 1500 ± 100 nM; in [5] it was 2400 ± 400 nM. The “SW480 cells TGI (total growth inhibition)” value in test [6] was 2.5. In test [7], this molecule registered a 4T1 cells TGI (total growth inhibition) of over 5000 nM. In test [8], the cell viability entry is “suppression of cell viability”. Also, in [9], the “colony formation by 4T1 cells” value was “inhibited colony formation”. In [10], this molecule displayed a Kd of 2700 ± 200 nM.
